Literature values in US20170258967A1, “COMPOSITIONS AND METHODS FOR DELIVERING AN AGENT TO A WOUND” (UNIVERSITY OF MEMPHIS RESEARCH FOUNDATION, priority 2014, published 2017).

System: S. aureus

SMILES: CCCCCCC/C=C\C(=O)O [Cis-2-decenoic acid, Cis-2-Decenoic Acid]
- effect on S. aureus growth and biofilm formation: inhibit S. aureus growth and biofilm formation
